Measured values as given in paper PMC4519322 (PLoS Pathogens, 2015).

Experiments:
A/WSN/1933 (H1N1) = type: cell-based, influenza A virus
Y289H rWSN = type: cell-based, influenza A virus; conditions: read-out: IC50 (μM) Y289H rWSM (H1N1)

| Structure (SMILES) | sensitivity of RK424 3rd passage virus (A/WSN/1933 (H1N1)) | sensitivity of nucleozin 4th passage virus (A/WSN/1933 (H1N1)) | IC50 (Y289H rWSN) |
| --- | --- | --- | --- |
| Cc1onc(-c2ccccc2)c1C(=O)N1CCN(c2ccc([N+](=O)[O-])cc2Cl)CC1 [Nucleozin, nucleozin, reference compound] | susceptible | exhibited resistance | > 100 µM |
| O=C(O)c1cc(-c2ccc(-c3ccccc3)cc2)nc2ccccc12 [RK424] | susceptible | but not RK424 | 0.3 ± 0.1 µM |
